The target in the test is Acetyl-coenzyme A synthetase, cytoplasmic (Homo sapiens, UniProt Q9NR19). In words: ACSS2 Cell-Free Activity Assay.

This note sets out measurements from BindingDB's records for patent US12441689 (Epivario, 2025).

Acetyl-coenzyme A synthetase, cytoplasmic, sequence (Q9NR19 whole entry): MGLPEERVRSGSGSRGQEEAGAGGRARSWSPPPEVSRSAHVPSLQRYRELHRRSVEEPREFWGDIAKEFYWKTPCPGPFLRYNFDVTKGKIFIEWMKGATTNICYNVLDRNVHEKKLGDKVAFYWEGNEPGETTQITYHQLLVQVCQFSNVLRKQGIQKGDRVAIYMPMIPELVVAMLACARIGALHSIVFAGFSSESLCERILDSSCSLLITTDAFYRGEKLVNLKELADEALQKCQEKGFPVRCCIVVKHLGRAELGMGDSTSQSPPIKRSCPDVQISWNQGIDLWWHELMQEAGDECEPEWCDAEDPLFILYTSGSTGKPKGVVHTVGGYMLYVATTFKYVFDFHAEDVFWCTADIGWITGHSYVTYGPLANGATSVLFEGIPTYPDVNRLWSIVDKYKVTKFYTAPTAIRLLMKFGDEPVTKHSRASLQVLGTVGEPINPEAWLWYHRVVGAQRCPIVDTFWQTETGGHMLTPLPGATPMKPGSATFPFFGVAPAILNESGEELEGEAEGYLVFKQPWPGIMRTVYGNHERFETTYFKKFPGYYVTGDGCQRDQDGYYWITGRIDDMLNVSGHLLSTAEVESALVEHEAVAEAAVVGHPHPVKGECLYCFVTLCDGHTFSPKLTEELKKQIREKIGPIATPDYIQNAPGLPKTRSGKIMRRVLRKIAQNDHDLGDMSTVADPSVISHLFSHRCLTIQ
Protocol: At the end of the reaction, Biomol Green was added for 30 minutes at RT and the activity was measured by reading the absorbance at 620 nm.

Usually IC50 stands for the concentration that gives 50% inhibition. A higher IC50 goes with weaker potency in that assay. `CCC(F)(F)c1cccc(NC(=O)c2nc(-c3ccc4cc[nH]c4c3)oc2C)c1` [US12441689, Compound 106] registered a concentration for half-maximal inhibition (IC50) above 100 nM.
